Tests used:
[1] = tested on: Taxol-sensitive HCT8 cancer cells; assay: MTT cytotoxicity, taxol-sensitive HCT8; format: cell-based; details: 72 h
Experimental: (§1) All prepared cobalt-polypyridyl complexes were dissolved in DMSO at a final concentration of 50 mmol/L and stored at −20° C. before use. Cytotoxicity was assessed by using the 3-(4,5-dimethylthiazol-2-yl)-2,5-diphenyltetrazolium bromide (MTT) (5.0 mg/ml) assay as previously described (Wong, V. K. et al., Cell Death Dis, 2013, 4, e720). Briefly, 4×10^3 cells per well were seeded in 96-well plates before drug treatments. After overnight culture, the cells were then exposed to different concentrations of selected compounds (0.039-100 μmol/L) for 72 h. Cells without drug treatment were used as control. Subsequently, MTT (10 μL) solution was added to each well and incubated at 37° C. for 4 h followed by the addition of 100 μL solubilization buffer (10% SDS in 0.01 mol/L HCl) and overnight incubation. A570 nm was then determined in each well on the next day. The percentage of cell viability was calculated using the following formula: Cell viability (%)=Atreated/Acontrol×100. Data were obtained from three independent experiments.

[2] = tested on: HeLa cells (cervical cancer); assay: MTT cytotoxicity assay, HeLa; format: cell-based; details: 72 h
Experimental: as §1, with “experiments. Cells include HeLa cells (cervical cancer), MCF-7 (breast cancer), H1299, H1975, A549 and LLC-1 (lung cancer), HepG2 and Hep3B (liver cancer) and LO2 (normal human hepatocytes).” for “experiments.”

[3] = tested on: cisplatin-sensitive A2780 ovarian cancer cells; assay: MTT cytotoxicity, cisplatin-sensitive A2780; format: cell-based; details: 72 h
Experimental: as §1
(§2) Cisplatin-sensitive or -resistant A2780, OV2008 and C13 cancer cells were provided by Prof. Benjamin Tsang (Department of Obstetrics and Gynecology and Department of Cellular and Molecular Medicine, University of Ottawa, Canada). HCT116 p53^+/+ and p53^−/− isogenic human colon cancer cells were provided by Professor Bert Vogelstein (Ludwig Center at Johns Hopkins, Howard Hughes Medical Institute, USA). All media were supplemented with 10% fetal bovine serum and the antibiotics penicillin (50 U/ml) and streptomycin (50 μg/ml; Invitrogen, Paisley, Scotland, UK). All cell cultures were incubated at 37° C. in a 5% humidified CO2 incubator.

[4] = tested on: cisplatin-sensitive SGC-7901 gastric cancer cells; assay: MTT cytotoxicity, cisplatin-sensitive SGC-7901; format: cell-based; details: SGC-7901, MTT, 72 h
Experimental: as §1

[5] = tested on: LLC-1 (lung cancer); assay: MTT cytotoxicity assay, LLC-1; format: cell-based; details: LLC-1, MTT, 72 h
Experimental: as §1, with “experiments. Cells include HeLa cells (cervical cancer), MCF-7 (breast cancer), H1299, H1975, A549 and LLC-1 (lung cancer), HepG2 and Hep3B (liver cancer) and LO2 (normal human hepatocytes).” for “experiments.”

[6] = tested on: LO2 (normal human hepatocytes); assay: MTT cytotoxicity assay, LO2; format: cell-based; details: 72 h
Experimental: as §1, with “experiments. Cells include HeLa cells (cervical cancer), MCF-7 (breast cancer), H1299, H1975, A549 and LLC-1 (lung cancer), HepG2 and Hep3B (liver cancer) and LO2 (normal human hepatocytes).” for “experiments.”

[7] = tested on: cisplatin-resistant A2780 ovarian cancer cells; assay: MTT cytotoxicity, cisplatin-resistant A2780; format: cell-based; details: for IC50: A2780, MTT, 72 h; for Resistant Factor: A2780, cisplatin-resistant over cisplatin-sensitive
Experimental: as §1, §2

[8] = tested on: HCT116 p53^+/+ colon cancer cells; assay: MTT cytotoxicity, HCT116 p53+/+; format: cell-based, human; details: 72 h
Experimental: as §1, §2

[9] = tested on: A549 (lung cancer); assay: MTT cytotoxicity assay, A549; format: cell-based; details: 72 h
Experimental: as §1, with “experiments. Cells include HeLa cells (cervical cancer), MCF-7 (breast cancer), H1299, H1975, A549 and LLC-1 (lung cancer), HepG2 and Hep3B (liver cancer) and LO2 (normal human hepatocytes).” for “experiments.”

[10] = tested on: OV2008/C13 cervical cancer cells; assay: MTT cytotoxicity, OV2008/C13 (cisplatin-resistant); format: cell-based; details: for Resistant Factor: OV2008/C13 over OV2008
Experimental: as §1, §2

[11] = tested on: HepG2 (liver cancer); assay: MTT cytotoxicity assay, HepG2; format: cell-based; details: 72 h
Experimental: as §1, with “experiments. Cells include HeLa cells (cervical cancer), MCF-7 (breast cancer), H1299, H1975, A549 and LLC-1 (lung cancer), HepG2 and Hep3B (liver cancer) and LO2 (normal human hepatocytes).” for “experiments.”

[12] = tested on: Hep 3B (liver cancer); assay: MTT cytotoxicity assay, Hep3B; format: cell-based; details: 72 h
Experimental: as §1, with “experiments. Cells include HeLa cells (cervical cancer), MCF-7 (breast cancer), H1299, H1975, A549 and LLC-1 (lung cancer), HepG2 and Hep3B (liver cancer) and LO2 (normal human hepatocytes).” for “experiments.”

[13] = tested on: H1299 (lung cancer); assay: MTT cytotoxicity assay, H1299; format: cell-based, human; details: 72 h
Experimental: as §1, with “experiments. Cells include HeLa cells (cervical cancer), MCF-7 (breast cancer), H1299, H1975, A549 and LLC-1 (lung cancer), HepG2 and Hep3B (liver cancer) and LO2 (normal human hepatocytes).” for “experiments.”

[14] = tested on: Taxol-resistant A549 cancer cells; assay: MTT cytotoxicity, taxol-resistant A549; format: cell-based
Experimental: as §1
(§3) All cells were obtained from the American Type Culture Collection (Rockville, Md., USA) unless otherwise specified. Immortalized wild-type and Atg7-deficient mouse embryonic fibroblasts (MEFs) were provided by Professor Masaaki Komatsu (Juntendo University, School of Medicine, Japan). Taxol-resistant types of A549, MCF-7, HCT-8 cancer cells, cisplatin-resistant SGC7901 cancer cells were purchased from KeyGEN BioTECH, China.

[15] = tested on: Taxol-resistant HCT8 cancer cells; assay: MTT cytotoxicity, taxol-resistant HCT8; format: cell-based; details: for IC50: HCT8, MTT, 72 h; for Resistant Factor: HCT8, IC50 taxol-resistant over IC50 taxol-sensitive
Experimental: as §1, §3

[16] = tested on: MCF-7 (breast cancer); assay: MTT cytotoxicity assay, MCF-7; format: cell-based; details: MCF-7, MTT, 72 h
Experimental: as §1, with “experiments. Cells include HeLa cells (cervical cancer), MCF-7 (breast cancer), H1299, H1975, A549 and LLC-1 (lung cancer), HepG2 and Hep3B (liver cancer) and LO2 (normal human hepatocytes).” for “experiments.”

[17] = tested on: cisplatin-resistant SGC-7901 gastric cancer cells; assay: MTT cytotoxicity, cisplatin-resistant SGC-7901; format: cell-based; details: for IC50: SGC-7901, MTT, 72 h; for Resistant Factor: SGC-7901, cisplatin-resistant over cisplatin-sensitive
Experimental: as §1, §3

[18] = tested on: HCT116 p53^−/− colon cancer cells; assay: MTT cytotoxicity, HCT116 p53-/-; format: cell-based, human
Experimental: as §1, §2

[19] = tested on: H1975 (lung cancer); assay: MTT cytotoxicity assay, H1975; format: cell-based; details: 72 h
Experimental: as §1, with “experiments. Cells include HeLa cells (cervical cancer), MCF-7 (breast cancer), H1299, H1975, A549 and LLC-1 (lung cancer), HepG2 and Hep3B (liver cancer) and LO2 (normal human hepatocytes).” for “experiments.”

[20] = tested on: OV2008 cervical cancer cells; assay: MTT cytotoxicity, OV2008 (cisplatin-sensitive); format: cell-based; details: 72 h
Experimental: as §1, §2

[21] = tested on: Taxol-sensitive A549 cancer cells; assay: MTT cytotoxicity, taxol-sensitive A549; format: cell-based; details: 72 h
Experimental: as §1

[22] = tested on: Taxol-resistant MCF-7 cancer cells; assay: MTT cytotoxicity, taxol-resistant MCF-7; format: cell-based; details: for IC50: MCF-7, MTT, 72 h; for Resistant Factor: MCF-7, IC50 taxol-resistant over IC50 taxol-sensitive
Experimental: as §1, §3

[23] = tested on: Taxol-sensitive MCF-7 cancer cells; assay: MTT cytotoxicity, taxol-sensitive MCF-7; format: cell-based; details: MCF-7, MTT, 72 h
Experimental: as §1

[24] = tested on: cancer cells from different origins; assay: MTT cytotoxicity assay, summary over cancer cell lines; format: cell-based; details: range over the cancer cell lines of Table 1; read-out: mean IC50 values ranging (anti-cancer potency)
Experimental: as §1, with “experiments. Cells include HeLa cells (cervical cancer), MCF-7 (breast cancer), H1299, H1975, A549 and LLC-1 (lung cancer), HepG2 and Hep3B (liver cancer) and LO2 (normal human hepatocytes).” for “experiments.”
By contrast, the cytotoxicity was lower in LO2 normal human hepatocytes. […]

[25] = Body weight in mouse lung cancer xenograft model; format: in vivo; details: IP 40 mg/kg/day, tumor-bearing mice
Description: The mice were maintained under specific pathogen-free condition in a 12-h light-dark cycle. Experimental conditions were followed in accordance to the “Institutional AnimalCare and User Committee guidelines” of the Macau University of Science and Technology. Xenograft mouse model was constructed as previously described (Wong, V. K. et al., Oncotarget, 2016, 7, 9907-9924). LLC-1 Lewis lung cancer cells (1×10^6 cells) were subcutaneously injected in the right dorsal region of the mice. After tumors grew to about 100 mm^3, the mice were randomly divided into 3 groups: 1) the control group, 2) 40 mg/kg cobalt-polypyridyl complex of Formula (IV) group, and 3) 40 mg/kg cobalt-polypyridyl complex of Formula (IV) as chloride, also referenced as (IV)-Cl (water soluble form) group. The cobalt-polypyridyl complex of Formula (IV) was dissolved in 100 μL buffer (PEG400:EtOH:ddH2O=6:1:3), whereas (IV)-Cl (water soluble form) was dissolved in ddH2O. The complexes were then intraperitoneal injected in mice every day. The body weight of each mouse was recorded with the tumor volume determined by Vernier caliper using the formula of L×W^2×0.52, where L is the longest diameter of tumor and W is the shortest diameter of tumor. Mice with tumor implants were sacrificed after 10 days when the tumor size of vehicle control group reached above 1000 mm^3 due to animal ethical issue.

SMILES | IC50 [1] | IC50 [2] | IC50 [3] | IC50 [4] | IC50 [5] | IC50 [6] | IC50 [7] | Resistant Factor [7] | IC50 [9] | Resistant Factor [10] | IC50 [11] | IC50 [12] | IC50 [13] | IC50 [15] | Resistant Factor [15] | IC50 [16] | IC50 [17] | Resistant Factor [17] | IC50 [19] | IC50 [20] | other results
COc1ccnc(-c2cc(OC)ccn2)c1.COc1ccnc(-c2cc(OC)ccn2)c1.COc1ccnc(-c2cc(OC)ccn2)c1.F[P-](F)(F)(F)(F)F.F[P-](F)(F)(F)(F)F.F[P-](F)(F)(F)(F)F.[Co+3] [complex (VII), [Co^III(4,4′-(OMe)2-Bpy)3](PF6)3] | 4.3 µM | 12.8 µM | 24 µM | 21.6 µM | 8.71 µM | 20.6 µM | 27 µM | 1.13 | 18.6 µM | 1.45 | 15.4 µM | 5.33 µM | 8.71 µM | 1.04 µM | 0.24 | 10.8 µM | 20.7 µM | 0.96 | 9.31 µM | 14 µM | IC50 [8]: 77.8 µM; IC50 ([10]; OV2008/C13, MTT, 72 h): 20.3 µM; IC50 ([14]; A549, MTT, 72 h): 2.85 µM; Resistant Factor ([14]; A549, IC50 taxol-resistant over IC50 taxol-sensitive): 0.19; Resistant Factor ([18]; HCT116 p53^−/− over HCT116 p53^+/+): 0.53; IC50 ([18]; MTT, 72 h): 41.3 µM; IC50 [21]: 15 µM; IC50 [22]: 6.28 µM; Resistant Factor [22]: 0.66; IC50 [23]: 9.45 µM
CCCCCCCCCc1ccnc(-c2cc(CCCCCCCCC)ccn2)c1.CCCCCCCCCc1ccnc(-c2cc(CCCCCCCCC)ccn2)c1.CCCCCCCCCc1ccnc(-c2cc(CCCCCCCCC)ccn2)c1.F[P-](F)(F)(F)(F)F.F[P-](F)(F)(F)(F)F.F[P-](F)(F)(F)(F)F.[Co+3] [complex (VIII), [Co^III(4,4′-(C9H19)2-Bpy)3](PF6)3] | 56.4 µM | 21.3 µM | 30.2 µM | 36.3 µM | 10.4 µM | 40.2 µM | 29.1 µM | 0.96 | 82.8 µM | 1.87 | 26 µM | 54.1 µM | 26.7 µM | 41.1 µM | 0.73 | 37.4 µM | 35.9 µM | 0.99 | 24.2 µM | 49.4 µM | IC50 [24]: 10.4 to 82.8 µM; IC50 [22]: 11.1 µM; Resistant Factor [22]: 0.39; IC50 [23]: 28.5 µM
Cc1ccnc(-c2cc(C)ccn2)c1.Cc1ccnc(-c2cc(C)ccn2)c1.Cc1ccnc(-c2cc(C)ccn2)c1.[Cl-].[Cl-].[Cl-].[Co+3] [complex (IV)-Cl] | – | – | – | – | – | – | – | – | – | – | – | – | – | – | – | – | – | – | – | – | reduction in body weight [25]: no significant reduction in body weight
